Experiment [1] concerns Pseudomonas aeruginosa. The experiment in a line: Antibacterial activity against Pseudomonas aeruginosa PAO1-L. It counts as functional, organism-based.
The subject of experiment [2] is Pseudomonas aeruginosa. The experiment can be described thus: Anti-virulence activity against Pseudomonas aeruginosa PAO1-L assessed as reduction in pyocyanin production at 10 uM incubated for 24 hrs by absorbance based analysis relative to control. In kind it is functional. Further details: scale not given: the % may be the effect or the level left.
The test system of experiment [3] is Pseudomonas aeruginosa. The experiment in a line: Antibiofilm activity against Pseudomonas aeruginosa ATCC 27853 assessed as reduction in biofilm formation at 10 uM relative to control. It counts as functional. Further details: scale not given: the % may be the effect or the level left.
Experiment [4] is described as follows: Inhibition of quorum sensing system in Pseudomonas aeruginosa PAO1 expressing lasB-gfp.
Experiment [5] relates to Pseudomonas aeruginosa. The experiment can be described thus: Antivirulence activity against Pseudomonas aeruginosa PAO1 assessed as reduction in pyocyanin production at 20 ug/ml relative to control. As to conditions: dose 20 µg/ml. In kind it is functional. Further details: scale not given: the % may be the effect or the level left.
Experiment [6] concerns Pseudomonas aeruginosa. The experiment in a line: Antibacterial activity against Pseudomonas aeruginosa PAO1 assessed as reduction in bacterial growth. In kind it is functional.
Experiment [7] is described as follows: Inhibition of quorum sensing system in Pseudomonas aeruginosa PAO1-rhlA-gfp assessed as inhibition of rhlA expression at 50 ug/ml incubated for 8 hrs by microplate reader based analysis relative to control. As to conditions: dose 50.0 µg/ml.
Experiment [8] relates to Pseudomonas aeruginosa. The experiment in a line: Antibiofilm activity against Pseudomonas aeruginosa PAO1 assessed as inhibition of biofilm formation at 16 microg/ml incubated for 20 hrs by crystal violet staining based analysis. It counts as functional. Further details: scale not given: the % may be the effect or the level left. As to conditions: dose 16 µg/ml.
A short description of experiment [9]: Inhibition of quorum sensing system in Pseudomonas aeruginosa PAO1 expressing lasI-gfp assessed as inhibition of lasI expression at 50 ug/ml incubated for 8 hrs under shaking condition by microplate reader based analysis relative to control. As to conditions: dose 50.0 µg/ml.
The subject of experiment [10] is Pseudomonas aeruginosa. The experiment can be described thus: Antivirulence activity in Pseudomonas aeruginosa PAO1 assessed as reduction in elastase production at 10 uM incubated for 24 hrs by elastin-congo red dye based absorbance assay relative to control. It counts as functional. Further details: scale not given: the % may be the effect or the level left.
Experiment [11] has as its system Pseudomonas aeruginosa. The experiment in a line: Antivirulence activity against Pseudomonas aeruginosa PAO1 assessed as inhibition of pyocyanin production at 16 ug/ml relative to control. It counts as functional. Further details: scale not given: the % may be the effect or the level left. As to conditions: dose 16 µg/ml.
In experiment [12] the test system is Pseudomonas aeruginosa. The experiment can be described thus: Antibacterial activity against Pseudomonas aeruginosa ATCC 15442 assessed as reduction in bacterial cell growth incubated for 18 hrs by two fold serial microdilution method. It counts as functional. In general terms: Dilution methods test growth across graded concentrations, often in twofold steps.

Experiment [13] concerns Pseudomonas aeruginosa. The experiment can be described thus: Antibiofilm activity against Pseudomonas aeruginosa ATCC 15442 assessed as inhibition of biofilm formation at 16 ug/ml relative to control. It counts as functional. Further details: scale not given: the % may be the effect or the level left. The conditions noted are these: dose 16 µg/ml.
For experiment [14], the system named is Pseudomonas aeruginosa. The experiment in a line: Antibiofilm activity against Pseudomonas aeruginosa PAO1 assessed as inhibition of biofilm formation incubated for 24 hrs by crystal violet staining based assay. It counts as functional, organism-based. As to conditions: PAO1, 24 h.
Experiment [15] has as its system Pseudomonas aeruginosa. The experiment can be described thus: Downregulation of lasA mRNA expression in Pseudomonas aeruginosa PAO1 at 160 ug/ml incubated for 6 hrs by RT-qPCR analysis relative to control. It counts as functional. As to conditions: dose 160 µg/ml.
Experiment [16] concerns Pseudomonas aeruginosa. The experiment can be described thus: Antibacterial activity against Pseudomonas aeruginosa PAO1 assessed as bacterial growth inhibition after 24 hrs by liquid microdilution method. It counts as functional.
In experiment [17] the test system is Pseudomonas aeruginosa. The experiment can be described thus: Downregulation of lasB mRNA expression in Pseudomonas aeruginosa PAO1 at 160 ug/ml incubated for 6 hrs by RT-qPCR analysis relative to control. It counts as functional. As to conditions: dose 160 µg/ml. Background: In qPCR the cycle at which signal appears reflects the starting amount.
In experiment [18] the test system is Pseudomonas aeruginosa. The experiment in a line: Downregulation of lasR mRNA expression in Pseudomonas aeruginosa PAO1 at 16 ug/ml relative to control. The conditions noted are these: dose 16 µg/ml. It counts as functional.
Experiment [19] deals with Pseudomonas aeruginosa. The experiment in a line: Downregulation of lasI mRNA expression in Pseudomonas aeruginosa PAO1 at 16 ug/ml relative to control. In kind it is functional. As to conditions: dose 16 µg/ml.
Experiment [20] has as its system Pseudomonas aeruginosa. The experiment in a line: Downregulation of rhlI mRNA expression in Pseudomonas aeruginosa PAO1 at 160 ug/ml incubated for 6 hrs by RT-qPCR analysis relative to control. In kind it is functional. The conditions noted are these: dose 160 µg/ml.
The test system of experiment [21] is Pseudomonas aeruginosa. The experiment in a line: Downregulation of rhlR mRNA expression in Pseudomonas aeruginosa PAO1 at 160 ug/ml incubated for 6 hrs by RT-qPCR analysis relative to control. It counts as functional. As to conditions: dose 160 µg/ml.
Experiment [22] relates to Pseudomonas aeruginosa. The experiment in a line: Antibacterial activity against Pseudomonas aeruginosa ATCC 27853 assessed as bacterial growth inhibition by agar diffusion assay. In kind it is functional.
The test system of experiment [23] is Pseudomonas aeruginosa. The experiment can be described thus: Antibacterial activity against Pseudomonas aeruginosa ATCC 27853. In kind it is functional, organism-based.
The test system of experiment [24] is Pseudomonas aeruginosa. The experiment can be described thus: Antibiofilm activity against Pseudomonas aeruginosa assessed as reduction in biofilm formation incubated for 24 hrs relative to control. In kind it is functional. Further details: scale not given: the % may be the effect or the level left.
Experiment [25] relates to Pseudomonas aeruginosa. The experiment can be described thus: Antimicrobial activity against Pseudomonas aeruginosa assessed as reduction in microbial growth. It counts as functional, organism-based.
Experiment [26] relates to Pseudomonas aeruginosa. The experiment in a line: Downregulation of rhlA mRNA level in Pseudomonas aeruginosa PAO1 at 10 uM by RT-qPCR analysis. In kind it is functional.
Experiment [27] in a line: Inhibition of quorum sensing system in Pseudomonas aeruginosa PAO1 expressing lasB-gfp assessed as inhibition of lasB expression at 50 ug/ml incubated for 8 hrs by microplate reader based analysis relative to control. As to conditions: dose 50.0 µg/ml.
Experiment [28] can be described thus: Inhibition of quorum sensing system in Pseudomonas aeruginosa PAO1 expressing lasB-gfp at 10 uM relative to control.
Experiment [29] has as its system Pseudomonas aeruginosa. The experiment can be described thus: Antibiofilm activity against Pseudomonas aeruginosa PAO1 assessed as inhibition of biofilm formation at 100 uM relative to control. Further details: scale not given: the % may be the effect or the level left. It counts as functional.
In experiment [30] the test system is Pseudomonas aeruginosa. The experiment in a line: Antimicrobial activity against Pseudomonas aeruginosa PAO1 assessed as inhibition of bacterial growth measured for 18 hrs by CLSI-based broth microdilution method. In kind it is functional.
In experiment [31] the test system is Pseudomonas aeruginosa. The experiment can be described thus: Antivirulence activity against Pseudomonas aeruginosa PAO1 assessed as inhibition of rhamnolipid production at 16 ug/ml relative to control. In kind it is functional. Further details: scale not given: the % may be the effect or the level left. As to conditions: dose 16 µg/ml.
The test system of experiment [32] is Pseudomonas aeruginosa. The experiment in a line: Antivirulence activity against Pseudomonas aeruginosa PAO1 assessed as inhibition of pyocyanin production at 25 ug/ml incubated for 16 hrs under agitation by photometric analysis relative to control. In kind it is functional. Further details: scale not given: the % may be the effect or the level left. As to conditions: dose 25 µg/ml.

The values below come from ChEMBL document CHEMBL6153025, “Multidrug-resistant bacteria quorum-sensing inhibitors: A particular focus on Pseudomonasaeruginosa” (Eur J Med Chem, 2025).

Converted amounts (≈) assume the structure as drawn.

As usually defined, the IC50 is the concentration that inhibits the measured activity by half. As for `N#CCc1ccc(OC[C@H](O)Cn2cnc3ccc(Cl)cc3c2=O)cc1`, the values for the IC50 in experiment [1] and in experiment [4] were 4.3 µM and 1000 nM, respectively. Besides, the results for the Activity in [2] and in experiment [3] were 80% and 52%, respectively.
Take `C=CCSSc1nc2ccccc2c(=O)[nH]1`: the Activity in experiment [3] turned out to be 46%.
What is called MIC is the least concentration at which growth counts as inhibited. For orientation: inhibition means the drop in the measured response relative to a control, in per cent. Regarding `Cc1ccc(CCC(=O)NC2CCOC2=O)cc1` (stereo unspecified), the Activity in experiment [5] was determined as 66%; in experiment [8], 52%; in experiment [10], 52%. Further, in experiment [6], the MIC turned out to be 10 µM (≈ 2.47 µg/mL). In addition, the inhibition in [7] stood at 91%; in [9], 82%.
Turning to `Cc1nc2cccc(Br)c2c(=O)n1/N=C/c1ccc(O)cc1`, the Activity in experiment [11] is listed as 99.5%; in experiment [13], 25%. Moreover, in experiment [12], the MIC is greater than 50 µM.
For the molecule `O=C/C=C/c1ccccc1`, in experiment [14], the IC50 came to 2290 nM. For the same molecule, the Activity was determined as 65% in experiment [15]; 28% in experiment [17]; 98.56% in experiment [18]; 86% in [19]; 70% in [20]; 99% in experiment [21]. Further, the MIC in [16] is 11.3 µM (≈ 1.5 µg/mL).
For the molecule `O=C(CSc1nc2ccccc2s1)c1ccc2c(c1)OCCO2`, in [22], the MIC was greater than 512 µg/mL. The molecule also came in with an IC50 in experiment [23] of 115 µg/mL (≈ 335 µM).
For `Nc1ccc(S(=O)(=O)Nc2ccc3c(c2)OC2C=C(O)C=C(O)C2C3=O)cc1` (stereo unspecified), the Activity in experiment [24] came out at 50%. In addition, the IC50 in experiment [25] stood at 100 µM.
In experiment [26], `COc1cc(C)c(C(=O)Oc2cc(C)c(C(=O)O)c(O)c2)c(O)c1` [EVERNIC ACID] displayed an Activity of 50%. The inhibition in experiment [27] is 54%.
With `COc1cccc(C(=O)CSc2nc3ccccc3s2)c1`, in experiment [22], the MIC is greater than 512 µg/mL. The same molecule gave a half-inhibitory concentration (IC50) in experiment [23] of 182 µg/mL (≈ 578 µM).
With `CC1=C(/C=C/C(C)=C/C=C/C(C)=C/C=C/C=C(C)/C=C/C=C(C)/C=C/C2=C(C)C[C@@H](O)CC2(C)C)C(C)(C)C[C@H](O)C1` [ZEAXANTHIN], in [26], the Activity was determined as 43%. Moreover, in experiment [27], the inhibition worked out at 67.8%.
As to `O=c1c2c(Cl)cccc2ncn1Cc1ccc(NCc2ccco2)cc1`, in experiment [12], the MIC was greater than 50 µM. The Activity in [13] was 26.7%.
Turning to `CCCCCCCCSSc1nc2ccccc2c(=O)[nH]1`, in [3], the Activity is given as 46%.
In experiment [28], `O=Cc1ccc2c(c1)OC(c1ccc(O)c(O)c1)O2` (stereo unspecified) had an inhibition of 30%. Moreover, the Activity in [29] amounted to 44.63%.
`Cc1nc2cccc(Br)c2c(=O)n1/N=C/C=C/c1ccccc1`: in experiment [12], the MIC was greater than 50 µM. Moreover, the Activity in [13] was 58%.
Take `COc1ccc(-c2cc(=O)c3c(O)cc(O)cc3o2)cc1` [ACACETIN]: the MIC in [30] turned out to be 0.48 µg/mL (≈ 1.69 µM). For the same molecule, the values for the Activity in experiment [31] and in experiment [11] were 67% and 53%, respectively.
As for `O=C(O)c1ccccc1O` [SALICYLIC ACID], the half-maximal inhibitory concentration (IC50) in experiment [14] was found to be 3620 nM. Besides, the Activity in experiment [32] came out at 32%; in experiment [15], 31%; in [17] it was 22%; in [18], 78%; in experiment [19] it was 60%; in experiment [20], 82%. The molecule also showed an Activity in experiment [21] of 70%. Moreover, the MIC in experiment [16] came to 11.3 µM (≈ 1.57 µg/mL).
